# Data published in ChEMBL document CHEMBL1201862, “PubChem BioAssay data set” (2004).
# Active and inactive are the calls of the source.
# Key:
# [1] = human group III sPLA2 inhibitors, dose response, biochemical, QFRET, IC50 (AID 743457);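 also: green fluorescence rise as the enzyme cleaves BODIPY PC-A2 in liposomes; potency for inhibition of the enzyme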
# [2] = target: Cytochrome P450 2D6 (Homo sapiens, UniProt P10635);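 also: CYP2D6 member of a cytochrome P450 panel assay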
# [3] = target: T1, Cytochrome P450 1A2 (Homo sapiens, UniProt P05177);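 also: PubChem cytochrome P450 panel assay, CYP1A2 panel member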
# T1 sequence (P05177 whole entry): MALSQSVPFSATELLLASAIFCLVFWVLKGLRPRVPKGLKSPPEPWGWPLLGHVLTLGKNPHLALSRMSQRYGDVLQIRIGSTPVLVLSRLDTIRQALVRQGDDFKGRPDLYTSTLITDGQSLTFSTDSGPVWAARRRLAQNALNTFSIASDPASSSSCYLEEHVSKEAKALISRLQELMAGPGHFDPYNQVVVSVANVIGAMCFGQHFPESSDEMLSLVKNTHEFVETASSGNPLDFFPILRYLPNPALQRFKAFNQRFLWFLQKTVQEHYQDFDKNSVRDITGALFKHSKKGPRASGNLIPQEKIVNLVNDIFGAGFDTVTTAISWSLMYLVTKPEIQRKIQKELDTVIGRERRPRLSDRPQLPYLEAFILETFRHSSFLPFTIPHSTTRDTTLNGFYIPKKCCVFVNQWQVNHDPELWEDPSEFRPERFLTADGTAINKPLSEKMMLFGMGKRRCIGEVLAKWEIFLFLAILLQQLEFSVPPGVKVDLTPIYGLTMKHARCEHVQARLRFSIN
# [4] = target: T2, Low molecular weight phosphotyrosine protein phosphatase (Homo sapiens, UniProt P24666); format: functional; conditions: read-out: IC50_Mean;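 also: Dose-response confirmation assay measuring inhibition of LMPTP enzyme activity by fluorescence intensity read-out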
# T2 sequence (P24666 whole entry): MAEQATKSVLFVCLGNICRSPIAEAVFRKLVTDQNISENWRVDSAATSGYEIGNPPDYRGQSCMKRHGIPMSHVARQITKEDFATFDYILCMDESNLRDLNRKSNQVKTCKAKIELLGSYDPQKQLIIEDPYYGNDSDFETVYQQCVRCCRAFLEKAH
# [5] = target: T3, Tyrosine-protein phosphatase non-receptor type 22 (Homo sapiens, UniProt Q9Y2R2); test: LYP phosphatase inhibition for selectivity, dose response, selectivity assay for LMPTP inhibitor project, biochemical, fluorescence, LYP catalytic domain (AID 652006); format: functional; conditions: read-out: IC50_Mean
# T3 sequence (Q9Y2R2 whole entry): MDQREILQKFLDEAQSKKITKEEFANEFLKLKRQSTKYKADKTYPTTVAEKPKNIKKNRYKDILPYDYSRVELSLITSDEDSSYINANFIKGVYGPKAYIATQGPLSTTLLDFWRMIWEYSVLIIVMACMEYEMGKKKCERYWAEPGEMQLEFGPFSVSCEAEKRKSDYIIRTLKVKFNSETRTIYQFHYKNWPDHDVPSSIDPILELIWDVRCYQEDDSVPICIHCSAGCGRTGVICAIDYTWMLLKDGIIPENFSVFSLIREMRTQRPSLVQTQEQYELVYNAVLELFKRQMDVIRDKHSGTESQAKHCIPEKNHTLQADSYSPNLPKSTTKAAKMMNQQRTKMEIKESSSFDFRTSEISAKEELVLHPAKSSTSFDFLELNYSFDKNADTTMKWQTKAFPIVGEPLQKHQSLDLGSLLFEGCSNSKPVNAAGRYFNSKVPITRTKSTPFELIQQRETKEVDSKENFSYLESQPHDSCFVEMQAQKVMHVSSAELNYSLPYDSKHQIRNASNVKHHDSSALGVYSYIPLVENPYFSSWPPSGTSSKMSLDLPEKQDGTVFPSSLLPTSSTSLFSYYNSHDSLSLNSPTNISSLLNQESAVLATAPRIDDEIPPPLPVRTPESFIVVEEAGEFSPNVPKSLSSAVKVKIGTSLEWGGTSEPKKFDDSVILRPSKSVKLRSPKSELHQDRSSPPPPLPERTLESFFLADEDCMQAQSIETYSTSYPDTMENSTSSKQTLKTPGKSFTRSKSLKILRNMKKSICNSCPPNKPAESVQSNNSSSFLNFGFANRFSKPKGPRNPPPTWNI
# [6] = A Cell-Based Confirmatory Screen for Compounds that Inhibit VEEV, TC-83 (8).; format: functional
# [7] = NIH/3T3 fibroblast cytotoxicity, dose response, cytotoxicity control for T. cruzi growth inhibitor project, cell-based, cherry-pick samples, set 2 (AID 651817); format: functional; conditions: NIH3T3
# [8] = THP-1 cell cytotoxicity, dose response, cytotoxicity control for non-replicating M. tuberculosis project (AID 489025); format: functional
# [9] = Vero E6 cell cytotoxicity, dose response, cytotoxicity control for non-replicating M. tuberculosis project, secondary assay (AID 492998); format: functional, VeroE6; conditions: Vero C1008
# [10] = cells; format: functional
# [11] = AlphaScreen signal interference compounds, dose response, artefact control for ARNT-TACC3 interaction inhibitor project, biochemical, luminescence, cherry-pick (AID 651705); format: functional;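 also: AlphaScreen bead proximity signal that flags compounds interfering with the detection technology; potency reflects signal decrease which marks the compound as an assay artifact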
# [12] = target: Nuclear receptor subfamily 5 group A member 2 (Homo sapiens, UniProt O00482); format: functional, cell-based;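 also: HEK293T cells transfected with LRH-1 and a StAR promoter luciferase reporter; potency for inhibitors that lower LRH-1 driven reporter light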
# [13] = target: Steroidogenic factor 1 (Homo sapiens, UniProt Q13285); test: Counterscreen for inverse agonists of the liver receptor homolog-1 (LRH-1; NR5A2): Luminescence-based cell-based high throughput dose response assay to identify inverse agonists of the Steroidogenic Factor 1 Nuclear Receptor (SF1; NR5A1).; format: functional
# [14] = StAR promoter reporter inhibition counter-screen, dose response, counter-screen for LRH-1 inverse agonist project, cell-based, luminescence, luciferase reporter (AID 651969); format: functional
# [15] = inhibitors of intracellular T. cruzi replication, confirmation, NIH3T3 host cells, beta-gal luminescence (AID 2044); format: functional, cell-based;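 also: intracellular parasites grown in NIH/3T3 mouse fibroblasts as host cells; luminescent beta-galactosidase reporter signal from transgenic T. cruzi replicating inside host cells; inhibitors lower the luminescence signal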
# [16] = cytotoxicity toward NIH3T3 fibroblasts, dose response, counter-screen, cell-based, ATP luminescence, mouse fibroblasts (AID 2010); format: functional;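 also: cells exposed to compound for about 90 hours before reading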
# [17] = target: DNA dC->dU-editing enzyme APOBEC-3A (Homo sapiens, UniProt P31941); test: APOBEC3A DNA deaminase inhibitors, dose response, biochemical (AID 504722); format: functional
# [18] = target: Glucose-6-phosphate 1-dehydrogenase (Homo sapiens, UniProt P11413); test: human G6PD enzyme inhibitors, dose response, selectivity assay for P. falciparum G6PD inhibitor project, biochemical, fluorescence (AID 504792); format: functional
# [19] = target: DNA dC->dU-editing enzyme APOBEC-3G (Homo sapiens, UniProt Q9HC16); test: Dose Response confirmation of small molecule APOBEC3G DNA Deaminase Inhibitors via a fluorescence-based single-stranded DNA deaminase assay. [Related pubchem assays (depositor defined):AID493012, AID493028]; format: functional
# [20] = Fluorescence-based cell-based high throughput dose response assay for inhibitors of the interaction of nucleotide-binding oligomerization domain containing 2 (NOD2) and the receptor-interacting serine-threonine kinase 2 (RIPK2).; format: functional; conditions: Homo sapiens
# [21] = target: Beta Lactamase (Pseudomonas aeruginosa, UniProt Q932Y6); test: beta-lactamase reporter inhibitor potency, dose response, artefact control for NOD2-RIPK2 interaction inhibitor project, BLA reporter cells, FRET fluorescence (AID 651552); format: functional, cell-based
# [22] = miR-122 activators in hepatoma reporter cells, dose response, cell-based, Huh7 psiCHECK-miR122, Renilla luciferase, cherry-picked (AID 651956); format: functional;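 also: huh7 hepatoma cells stably carrying a psiCHECK-2 miR-122 sensor plasmid; renilla luciferase signal reporting endogenous miR-122 activity after 48 h compound exposure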
# [23] = target: Large T antigen (Simian virus 40, UniProt P03070); format: functional, Betapolyomavirus macacae;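 also: Confirmatory-stage PubChem screen for compounds that inhibit SV40 T antigen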
# [24] = target: T4, High affinity choline transporter 1 (Homo sapiens, UniProt Q9GZV3); test: CHT inhibitors, dose response, cell-based, 5-point CRC, membrane potential dye (AID 504840); format: functional
# T4 sequence (Q9GZV3 whole entry): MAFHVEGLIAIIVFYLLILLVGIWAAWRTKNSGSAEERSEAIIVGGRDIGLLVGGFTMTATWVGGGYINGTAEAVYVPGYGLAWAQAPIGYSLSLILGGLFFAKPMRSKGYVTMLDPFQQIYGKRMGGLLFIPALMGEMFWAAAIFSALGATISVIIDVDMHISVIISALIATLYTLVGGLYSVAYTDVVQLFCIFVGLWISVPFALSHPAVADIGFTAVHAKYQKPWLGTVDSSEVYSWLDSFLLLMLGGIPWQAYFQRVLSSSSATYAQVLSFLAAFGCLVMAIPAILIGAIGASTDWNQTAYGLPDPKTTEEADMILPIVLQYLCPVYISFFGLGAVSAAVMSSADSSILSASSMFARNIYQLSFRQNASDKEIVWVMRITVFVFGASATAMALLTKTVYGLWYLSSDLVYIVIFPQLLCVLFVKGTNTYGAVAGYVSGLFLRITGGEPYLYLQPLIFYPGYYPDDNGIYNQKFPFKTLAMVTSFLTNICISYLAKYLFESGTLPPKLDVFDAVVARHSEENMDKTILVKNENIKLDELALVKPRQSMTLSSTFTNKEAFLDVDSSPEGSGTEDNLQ
# [25] = HeLa cell cytotoxicity, dose response, cytotoxicity control for MgcRacGAP inhibitor project (AID 624300); format: functional
# [26] = target: T5, Rac GTPase-activating protein 1 (Homo sapiens, UniProt Q9H0H5); test: MgcRacGAP GTPase-activating activity inhibitors, confirmation, biochemical, ADP Hunter fluorescence, primary and confirmatory (AID 624330); format: functional
# T5 sequence (Q9H0H5 whole entry): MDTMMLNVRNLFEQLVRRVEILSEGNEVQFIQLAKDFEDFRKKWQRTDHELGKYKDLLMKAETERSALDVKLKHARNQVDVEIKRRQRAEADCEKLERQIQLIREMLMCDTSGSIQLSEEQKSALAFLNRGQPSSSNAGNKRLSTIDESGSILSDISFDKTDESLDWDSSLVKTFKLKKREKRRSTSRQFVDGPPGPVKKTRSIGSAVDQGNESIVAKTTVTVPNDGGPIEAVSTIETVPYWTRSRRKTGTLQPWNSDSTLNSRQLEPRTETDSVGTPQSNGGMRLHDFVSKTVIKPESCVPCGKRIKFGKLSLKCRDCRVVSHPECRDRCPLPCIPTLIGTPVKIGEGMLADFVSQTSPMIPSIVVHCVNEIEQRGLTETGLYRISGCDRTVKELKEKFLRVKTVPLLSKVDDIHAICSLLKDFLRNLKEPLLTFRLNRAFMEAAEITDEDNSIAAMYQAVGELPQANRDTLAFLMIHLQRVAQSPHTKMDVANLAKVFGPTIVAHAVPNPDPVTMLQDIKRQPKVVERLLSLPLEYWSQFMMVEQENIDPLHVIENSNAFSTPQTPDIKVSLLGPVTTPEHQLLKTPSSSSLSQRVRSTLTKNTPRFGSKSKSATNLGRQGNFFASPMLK
# [27] = HEK293T cytotoxicity, dose response, cytotoxicity control for miR-122 modulator project, cell-based, inhibitor set, cherry-pick, set 2 (AID 720697); format: functional
# [28] = inhibitors of TNFa-stimulated NF-kB luciferase reporter, dose response, selectivity assay for EBV LMP1 NF-kB inhibitor project, HEK293 LMP1 reporter cells, dry powder, set 2 (AID 624369); format: functional
# [29] = target: Paired box protein Pax-8 (Homo sapiens, UniProt Q06710); test: inhibitors of PAX8-driven TPO luciferase reporter, dose response, RMG-I cells, cherry-pick (AID 687027); format: functional, cell-based;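 also: luciferase reporter driven by Pax8 target thyroperoxidase promoter measured by SteadyGlo luminescence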
# [30] = inhibitors of CMV-promoter luciferase reporter, dose response, counter-screen for Pax8 inhibitor project, cell-based, HEK293, luminescence, dry powder (AID 743020); format: functional
# [31] = NIH:OVCAR-3 ovarian cancer cell cytotoxicity, dose response, PAX8 inhibitor project, plate reader, dry powder samples (AID 743044); format: functional, cell-based
# [32] = target: Mu-type opioid receptor (Homo sapiens, UniProt P35372); format: functional, cell-based;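 also: U2OS cells with beta-arrestin recruitment to OPRM1 by beta-gal complementation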
# [33] = target: 5-hydroxytryptamine receptor 2A (Mus musculus, UniProt P35363); format: functional, cell-based;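 also: CHO-K1 cells with tagged receptor and beta-arrestin; agonist potency measured as compound-induced activation of the receptor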
# Sequence of 5-hydroxytryptamine receptor 2A (P35363 whole entry): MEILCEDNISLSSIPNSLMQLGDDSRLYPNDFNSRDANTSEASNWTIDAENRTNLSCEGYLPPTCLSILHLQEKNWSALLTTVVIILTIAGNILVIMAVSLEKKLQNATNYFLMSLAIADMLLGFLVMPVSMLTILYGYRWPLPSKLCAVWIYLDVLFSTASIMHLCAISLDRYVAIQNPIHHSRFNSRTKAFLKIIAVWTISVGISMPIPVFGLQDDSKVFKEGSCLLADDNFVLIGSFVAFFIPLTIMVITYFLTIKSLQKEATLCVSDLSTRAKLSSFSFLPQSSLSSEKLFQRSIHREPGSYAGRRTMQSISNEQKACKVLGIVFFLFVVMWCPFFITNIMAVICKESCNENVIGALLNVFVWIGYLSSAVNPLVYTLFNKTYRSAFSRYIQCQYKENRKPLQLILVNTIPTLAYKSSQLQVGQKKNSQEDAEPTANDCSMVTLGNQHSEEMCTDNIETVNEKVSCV
# Sequence of Glucose-6-phosphate 1-dehydrogenase (P11413 whole entry): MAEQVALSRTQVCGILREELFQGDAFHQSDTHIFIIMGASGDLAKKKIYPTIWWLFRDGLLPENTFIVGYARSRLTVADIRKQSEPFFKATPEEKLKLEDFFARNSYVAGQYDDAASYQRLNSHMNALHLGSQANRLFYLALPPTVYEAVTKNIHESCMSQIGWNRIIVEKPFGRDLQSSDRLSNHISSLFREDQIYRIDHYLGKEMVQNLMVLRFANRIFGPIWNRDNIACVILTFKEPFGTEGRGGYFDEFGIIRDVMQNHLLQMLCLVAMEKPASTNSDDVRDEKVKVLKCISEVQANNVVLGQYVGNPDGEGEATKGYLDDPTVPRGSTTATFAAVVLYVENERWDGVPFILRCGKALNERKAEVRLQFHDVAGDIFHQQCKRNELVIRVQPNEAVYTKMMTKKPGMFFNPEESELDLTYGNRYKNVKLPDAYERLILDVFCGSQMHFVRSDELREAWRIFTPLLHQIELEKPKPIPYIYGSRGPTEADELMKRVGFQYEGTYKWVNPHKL
# Sequence of DNA dC->dU-editing enzyme APOBEC-3A (P31941 whole entry): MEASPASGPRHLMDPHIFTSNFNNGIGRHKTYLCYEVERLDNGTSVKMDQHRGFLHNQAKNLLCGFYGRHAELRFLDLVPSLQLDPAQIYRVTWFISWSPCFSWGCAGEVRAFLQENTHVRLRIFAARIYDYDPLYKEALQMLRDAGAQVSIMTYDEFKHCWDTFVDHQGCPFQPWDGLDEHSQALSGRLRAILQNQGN
# Sequence of Nuclear receptor subfamily 5 group A member 2 (O00482 whole entry): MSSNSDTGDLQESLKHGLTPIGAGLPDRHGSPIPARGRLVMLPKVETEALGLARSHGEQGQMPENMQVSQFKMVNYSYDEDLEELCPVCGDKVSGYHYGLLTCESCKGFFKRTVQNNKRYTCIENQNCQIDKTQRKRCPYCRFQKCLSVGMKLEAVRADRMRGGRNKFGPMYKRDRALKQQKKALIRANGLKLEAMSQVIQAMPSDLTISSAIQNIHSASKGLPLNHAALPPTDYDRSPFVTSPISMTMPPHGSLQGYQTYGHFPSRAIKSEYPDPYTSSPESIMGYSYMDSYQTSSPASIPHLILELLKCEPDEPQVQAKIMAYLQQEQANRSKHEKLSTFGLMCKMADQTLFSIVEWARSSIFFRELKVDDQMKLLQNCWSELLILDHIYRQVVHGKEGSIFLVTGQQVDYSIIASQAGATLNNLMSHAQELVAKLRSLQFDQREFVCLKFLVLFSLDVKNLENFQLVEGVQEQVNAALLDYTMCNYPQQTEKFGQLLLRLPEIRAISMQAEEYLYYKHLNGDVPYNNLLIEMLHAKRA
# Sequence of Paired box protein Pax-8 (Q06710 whole entry): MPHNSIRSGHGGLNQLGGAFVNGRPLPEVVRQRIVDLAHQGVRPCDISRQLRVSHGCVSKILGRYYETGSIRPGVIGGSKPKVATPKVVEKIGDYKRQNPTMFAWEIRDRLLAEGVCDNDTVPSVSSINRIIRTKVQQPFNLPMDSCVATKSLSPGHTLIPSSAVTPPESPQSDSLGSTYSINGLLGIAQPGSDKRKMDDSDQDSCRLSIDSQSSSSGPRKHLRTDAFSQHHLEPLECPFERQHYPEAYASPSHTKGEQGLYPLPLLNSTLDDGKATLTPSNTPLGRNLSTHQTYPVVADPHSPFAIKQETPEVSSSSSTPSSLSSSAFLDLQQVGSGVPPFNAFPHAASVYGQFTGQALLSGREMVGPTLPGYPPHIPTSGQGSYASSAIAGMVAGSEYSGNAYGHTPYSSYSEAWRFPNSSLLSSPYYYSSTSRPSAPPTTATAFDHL
# Sequence of Cytochrome P450 2D6 (P10635 whole entry): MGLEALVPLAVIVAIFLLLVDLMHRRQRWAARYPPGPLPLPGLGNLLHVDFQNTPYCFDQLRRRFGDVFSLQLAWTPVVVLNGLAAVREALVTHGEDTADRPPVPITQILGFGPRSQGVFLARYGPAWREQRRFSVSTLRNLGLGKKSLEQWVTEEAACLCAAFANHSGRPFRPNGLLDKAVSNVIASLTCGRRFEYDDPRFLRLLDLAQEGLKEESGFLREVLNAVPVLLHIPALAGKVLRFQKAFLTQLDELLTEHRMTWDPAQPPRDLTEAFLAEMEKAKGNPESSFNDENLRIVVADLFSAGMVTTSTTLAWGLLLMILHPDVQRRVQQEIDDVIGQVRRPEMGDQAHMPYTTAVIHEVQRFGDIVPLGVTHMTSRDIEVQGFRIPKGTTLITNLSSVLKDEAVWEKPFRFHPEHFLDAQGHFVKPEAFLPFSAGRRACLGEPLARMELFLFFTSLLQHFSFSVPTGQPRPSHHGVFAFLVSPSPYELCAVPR
# Sequence of Mu-type opioid receptor (P35372 whole entry): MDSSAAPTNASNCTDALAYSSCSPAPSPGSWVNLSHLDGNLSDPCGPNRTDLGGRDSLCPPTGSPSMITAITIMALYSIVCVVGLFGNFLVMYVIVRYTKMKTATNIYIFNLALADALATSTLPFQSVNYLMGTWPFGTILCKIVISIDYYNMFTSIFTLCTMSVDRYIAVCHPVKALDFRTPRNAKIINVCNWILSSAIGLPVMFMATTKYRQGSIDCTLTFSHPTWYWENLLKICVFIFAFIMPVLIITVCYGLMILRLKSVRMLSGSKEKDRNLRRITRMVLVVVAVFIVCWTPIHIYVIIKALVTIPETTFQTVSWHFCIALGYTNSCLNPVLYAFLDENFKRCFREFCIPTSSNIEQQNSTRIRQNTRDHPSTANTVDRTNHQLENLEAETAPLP
# Sequence of DNA dC->dU-editing enzyme APOBEC-3G (Q9HC16 whole entry, the tested form may be a part): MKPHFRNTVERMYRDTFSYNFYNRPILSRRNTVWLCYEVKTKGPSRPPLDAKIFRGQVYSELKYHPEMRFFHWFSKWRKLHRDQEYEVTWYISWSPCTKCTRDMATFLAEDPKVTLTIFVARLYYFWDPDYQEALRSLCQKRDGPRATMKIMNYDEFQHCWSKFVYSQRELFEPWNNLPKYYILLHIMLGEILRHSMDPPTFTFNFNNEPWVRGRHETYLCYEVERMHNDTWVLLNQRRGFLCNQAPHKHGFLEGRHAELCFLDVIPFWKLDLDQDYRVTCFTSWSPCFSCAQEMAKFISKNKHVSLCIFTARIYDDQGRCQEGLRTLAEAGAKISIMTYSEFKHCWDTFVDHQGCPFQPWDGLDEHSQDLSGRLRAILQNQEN
# Sequence of Steroidogenic factor 1 (Q13285 whole entry): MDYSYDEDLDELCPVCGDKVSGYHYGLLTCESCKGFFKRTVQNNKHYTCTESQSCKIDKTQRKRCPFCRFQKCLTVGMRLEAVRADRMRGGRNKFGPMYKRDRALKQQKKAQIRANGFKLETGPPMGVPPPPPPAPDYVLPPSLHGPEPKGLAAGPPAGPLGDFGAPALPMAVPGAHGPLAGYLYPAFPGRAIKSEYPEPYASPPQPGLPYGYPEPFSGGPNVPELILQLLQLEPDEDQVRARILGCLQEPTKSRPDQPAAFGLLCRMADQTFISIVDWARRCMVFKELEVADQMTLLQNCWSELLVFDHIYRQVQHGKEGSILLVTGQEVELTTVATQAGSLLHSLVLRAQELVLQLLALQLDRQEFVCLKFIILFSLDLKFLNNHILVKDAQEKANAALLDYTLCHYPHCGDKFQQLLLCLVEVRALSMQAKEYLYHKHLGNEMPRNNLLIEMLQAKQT
# Sequence of Large T antigen (P03070 whole entry): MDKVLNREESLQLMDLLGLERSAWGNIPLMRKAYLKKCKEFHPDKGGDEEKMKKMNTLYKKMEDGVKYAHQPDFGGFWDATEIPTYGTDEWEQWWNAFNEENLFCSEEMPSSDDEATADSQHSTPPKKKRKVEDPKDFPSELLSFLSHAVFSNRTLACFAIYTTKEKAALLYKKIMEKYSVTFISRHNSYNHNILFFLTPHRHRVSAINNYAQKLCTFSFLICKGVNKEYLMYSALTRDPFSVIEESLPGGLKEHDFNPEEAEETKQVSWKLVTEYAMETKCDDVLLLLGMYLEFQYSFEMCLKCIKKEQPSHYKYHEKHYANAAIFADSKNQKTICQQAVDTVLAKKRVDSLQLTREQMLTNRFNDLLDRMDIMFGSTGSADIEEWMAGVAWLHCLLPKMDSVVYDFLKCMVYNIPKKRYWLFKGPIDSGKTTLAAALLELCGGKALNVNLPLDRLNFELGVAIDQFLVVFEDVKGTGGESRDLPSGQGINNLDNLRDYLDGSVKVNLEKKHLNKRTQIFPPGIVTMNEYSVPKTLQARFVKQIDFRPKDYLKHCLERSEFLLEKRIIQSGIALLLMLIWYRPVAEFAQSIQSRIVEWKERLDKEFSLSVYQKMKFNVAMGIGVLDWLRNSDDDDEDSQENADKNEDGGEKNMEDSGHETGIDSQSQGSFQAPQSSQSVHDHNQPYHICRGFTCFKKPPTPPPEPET
# Sequence of Beta Lactamase (Q932Y6 whole entry): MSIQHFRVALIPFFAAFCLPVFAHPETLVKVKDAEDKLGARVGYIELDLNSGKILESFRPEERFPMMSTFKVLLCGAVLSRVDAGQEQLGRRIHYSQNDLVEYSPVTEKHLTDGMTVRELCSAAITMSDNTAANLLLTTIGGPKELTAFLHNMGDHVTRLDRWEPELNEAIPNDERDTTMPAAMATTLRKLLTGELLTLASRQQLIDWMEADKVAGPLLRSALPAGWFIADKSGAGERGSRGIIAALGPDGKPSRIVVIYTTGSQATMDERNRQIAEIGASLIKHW
smiles,measurement,setting,value
O=C(CSCc1ccccc1Cl)NNC(=S)Nc1ccccc1,IC50,[1],> 122 µM (inactive)
same,AC50,[2],14.1 µM (inconclusive)
same,AC50,[3],15.8 µM (inconclusive)
CC1C(=O)N(Cc2cn(Cc3ccco3)nn2)CCS(=O)(=O)N1Cc1ccc(-c2cccnc2)cc1 (stereo not drawn),IC50,[4],15.2 µM (active)
same,IC50,[5],26.6 µM (inactive)
CCN1CCN(Cc2nc3ccc(C#N)cc3c(=O)n2-c2ccccc2)CC1,IC50,[6],1.14 µM (active)
C[C@H]1CN([C@@H](C)CO)C(=O)c2cccc(NC(=O)NC3CCCCC3)c2O[C@H]1CN(C)S(=O)(=O)c1ccc(F)cc1,AC50,[7],28.7 µM (active)
c1ccc(-c2nc3ccccn3c2NC2CCCC2)nc1,CC50,[8],28.8 µM (active)
same,CC50,[9],> 20 µM (active)
same,IC50,[10],4.27 µM (active)
same,AC50,[11],87.6 µM (active)
CC(=O)c1ccc(OC(C)C(=O)OCC(=O)NCCc2ccccc2)cc1 (stereo not drawn),IC50,[12],9.39 µM (active)
same,IC50,[13],8.19 µM (active)
same,IC50,[14],35.9 µM (inactive)
Cc1cc(C)c2c(=O)n(CC(=O)Nc3ccc(Cl)cc3)sc2n1,EC50,[15],1.39 µM (active)
same,EC50,[16],> 30 µM (not active)
same,IC50,[17],> 100 µM (inactive)
same,IC50,[18],20.7 µM (inactive)
same,IC50,[19],3.35 µM (active)
same,IC50,[20],9.56 µM (active)
same,IC50,[21],23.6 µM (inactive)
CCCNC(=O)C[C@H]1CC[C@@H]2[C@@H](COc3ccc(NC(=O)c4ccc(C(F)(F)F)cc4)cc3C(=O)N2C)O1,AC50,[22],26.9 µM (active)
COc1cc(/C=C2/C(=O)ON=C2c2ccccc2)ccc1O,IC50,[23],9.98 µM (active)
same,IC50,[24],9.6 µM (active)
same,CC50,[25],100 µM (active)
same,IC50,[26],100 µM (active)
O=C(Nc1ccccc1)N1C[C@@H]2[C@H](c3ccccc31)[C@H](CO)N2Cc1cocn1,AC50,[27],9.02 µM (active)
CCCNC(=O)c1cc2c(c(-c3cccc(-c4cccc(F)c4)c3)n1)[C@H](CCO)N([S@@+]([O-])C(C)(C)C)C2,AbsAC35,[28],250.06 µM
CS(=O)(=O)Nc1ccc2c(c1)[C@@H]1C[C@H](CC(=O)NCc3ccc(Oc4ccccc4)cc3)O[C@@H](CO)[C@@H]1O2,AC50,[29],6.4 µM (active)
same,AC50,[30],39.7 µM (active)
same,AC50,[31],20.7 µM (active)
O=C(CSc1ccc2ccccc2c1)NCCc1ccc(O)c(O)c1,EC50,[32],92.5 µM (inactive)
same,EC50,[33],2.67 µM (active)
